Structures are written as SMILES.

Usually melting point stands for the temperature, or range, at which the solid turns liquid.

Turning to `O=C1NCC(=O)N2[C@@H](c3ccc4c(c3)OCO4)c3[nH]c4ccccc4c3C[C@H]12` (relative stereo) [Example 4, Cis-2,3,6,7,12,12a-Hexahydro-6-(3,4-methylenedioxyphenyl)-pyrazino[2′,1′:6,1]pyrido[3,4-b]indole-1,4-dione], the melting point fell in the range of 283 to 285 °C.

Regarding `O=C1[C@H]2Cc3c([nH]c4ccccc34)[C@H](c3ccc4c(c3)OCO4)N2C(=O)CN1Cc1ccccn1` (relative stereo) [Example 10, Cis-2,3,6,7,12,12a-Hexahydro-2-(2-pyridylmethyl)-6-(3,4-methylenedioxyphenyl)-pyrazino[2′,1′:6,1]pyrido[3,4-b]indole-1,4-dione], the melting point lay in the range of 285 to 286 °C.

Consider `CCCN1CC(=O)N2[C@@H](c3ccc4c(c3)OCO4)c3[nH]c4ccccc4c3C[C@@H]2C1=O` (relative stereo) [Example 15, Cis-2,3,6,7,12,12a-Hexahydro-6-(3,4-methylenedioxyphenyl)-2-propyl-pyrazino[2′,1′:6,1]pyrido[3,4-b]indole-1,4-dione], for which the melting point fell in the range of 270 to 271 °C.

The compound `O=C1[C@H]2Cc3c([nH]c4ccccc34)[C@H](c3ccc4c(c3)OCO4)N2C(=O)CN1C1CC1` (relative stereo) [Example 17, Cis-2,3,6,7,12,12a-Hexahydro-2cyclopropyl-6-(3,4-methylenedioxyphenyl)-pyrazino[2′,1′:6,1]pyrido[3,4-b]indole-1,4-dione] came in with a melting point of 290 to 292 °C.

Turning to `CCCCN1CC(=O)N2[C@@H](c3ccc4c(c3)OCO4)c3[nH]c4ccccc4c3C[C@@H]2C1=O` (relative stereo) [Example 18, Cis-2,3,6,7,12,12a-Hexahydro-2-butyl-6-(3,4-methylenedioxyphenyl)-pyrazino[2′,1′:6,1]pyrido[3,4-b]indole-1,4-dione], the melting point was in the range of 241 to 243 °C.

As to `O=C1[C@H]2Cc3c([nH]c4ccccc34)[C@H](c3ccc4c(c3)OCO4)N2C(=O)CN1CC1CC1` (relative stereo) [Example 20, Cis-2,3,6,7,12,12a-Hexahydro-2-cyclopropylmethyl-6-(3,4-methylenedioxyphenyl)-pyrazino[2′,1′:6,1]pyrido[3,4-b]indole-1,4-dione], the melting point was 217 to 218 °C.

Compound `O=C1[C@H]2Cc3c([nH]c4ccccc34)[C@H](c3ccc4c(c3)OCO4)N2C(=O)CN1C1CCCC1` (relative stereo) [Example 21, Cis-2,3,6,7,12,12a-Hexahydro-2-cyclopentyl-6-(3,4-methylenedioxyphenyl)-pyrazino[2′,1′:6,1]pyrido[3,4-b]indole-1,4-dione] gave a melting point of 270 °C.

Turning to `O=C1[C@H]2Cc3c([nH]c4ccccc34)[C@H](c3ccc4c(c3)OCO4)N2C(=O)CN1Cc1ccc(F)cc1` (relative stereo) [Example 24, Cis-2,3,6,7,12,12a-Hexahydro-2-(4-fluorobenzyl)6-(3,4-methylenedioxyphenyl)-pyrazino[2′,1′:6,1]pyrido[3,4-b]indole-1,4-dione], the melting point is 281 to 283 °C.

The compound `COc1ccc([C@H]2c3[nH]c4ccccc4c3C[C@H]3C(=O)N(C)CC(=O)N23)cc1` (relative stereo) [Example 26, Trans-2,3,6,7,12,12a-Hexahydro-6-(4-methoxyphenyl)-2-methyl-pyrazino[2′,1′:6,1]pyrido[3,4-b]indole-1,4-dione] yielded a melting point of 225 to 228 °C.

As to `CCN1CC(=O)N2[C@@H](c3ccc(OC)cc3)c3[nH]c4ccccc4c3C[C@@H]2C1=O` (relative stereo) [Example 27, Cis-2,3,6,7,12,12a-Hexahydro-2-ethyl-6(4-methoxyphenyl)-pyrazino[2′,1′:6,1]pyrido[3,4-b]indole-1,4-dione], the melting point is 245 to 255 °C.

Regarding `CCCCN1CC(=O)N2[C@@H](c3ccc(OC)cc3)c3[nH]c4ccccc4c3C[C@@H]2C1=O` (relative stereo) [Example 29, Cis-2,3,6,7,12,12a-Hexahydro-2-butyl-6-(4-methoxyphenyl)-pyrazino[2′,1′:6,1]pyrido[3,4-b]indole-1,4-dione], the melting point came to 157 °C.

(Values after patent US6369059B1, “Tetracyclic derivatives, process of preparation and use” (ICOS Corporation, priority 1994, dated 2002).)
